Source: US5162538A, “Antiviral new peptides” (Bayer Aktiengesellschaft, priority 1989, dated 1992)

Columns and labels:
HIV protease = biological target: T1, HIV protease (Human immunodeficiency virus type 1 group M subtype B, UniProt P04585); assay: HIV-specific protease enzyme test (RP-HPLC analysis of synthetic peptide cleavage); type: biochemical; settings: purified HIV protease incubated with synthetic peptide imitating a Gag-precursor cleavage site; 50% inhibition of protease activity
T1 construct: purified HIV protease was incubated with synthetic peptide
Protocol: The compounds of the general formula (I) have extraordinarily strong action against retroviruses. This was proven by experiments using the HIV-specific protease enzyme test.
The result of the example below was obtained using the HIV-test system described in the following reference [cf. Hansen, J., Billich, S., Schulze, T., Sukrow, S. and Molling, K. (1988), EMBO Journal, Vol. 7, No. 6, pp. 1785-1791]: purified HIV protease was incubated with synthetic peptide which imitates a cleavage site in the Gag-precursor protein and represents an in vivo cleavage site of HIV protease. The resulting cleavage products of the synthetic peptide were analyzed by reverse-phase high performance liquid chromatography (RP-HPLC). The IC50 value relates to the substance concentration which causes 50% inhibition of protease activity under the abovementioned test conditions.

Visna virus = Visna virus test in infected cell culture (cytopathic effect); type: cell-based; settings: sheep fibroblast cells infected with Visna virus, MOI approx. 0.05, 7 days at 37° C., non-cytotoxic concentrations
Protocol: This was shown by way of example for the Visna virus.
The Visna virus and the HIV virus both belong to the retrovirus subfamily of lentiviruses.
In cell cultures which are infected with Visna virus, pronounced, virus-induced, cytopathic effects appear 5 to 10 days after infection. By treating the infected cell cultures with compounds according to the invention, it was possible to prevent the appearance of these cytopathic effects.
The Visna virus test was carried out according to the method of O. Narayan et al., Journal of Infectious Diseases 135, 5, 1977, 800-806. For this, a compound according to the invention was diluted to non-cytotoxic concentrations in the culture medium in 96-well microtiter plates. Sheep fibroblast cells (5×10^4 cells per well) in production medium were then added to each well. Each well then received 15 μl of a Visna virus solution having a titer of approx. 2.5×10^4 TCID50 (TCID=tissue culture infections dose). This virus dose corresponds to a MOI (multiplicity of infection) of approx. 0.05.
Under these infection conditions, a virus-induced, cytopathic effect resulted between day 5 and day 10 in an infection control without substance. The infected and treated cells and the control cells were incubated for 7 days at 37° C. and 5% CO2. […]

In the case of “Nα-{Nδ-[1-(1-oxo)ethyl-[1-(5-S-amino-6-cyclohexyl-4-S-hydroxy-2-(1-methyl)ethylhexanoyl)]]-S-isoleucinyl}-2-pyridylmethylamide [Example I]”, the IC50 (HIV protease) is reported as 500 pM and the “protection from virus-induced cytopathic effect / cell destruction” value (Visna virus) is reported as “protected the cells infected with Visna virus from the virus-induced cell destruction”.
